From patent US4728649A, “3-oxo-piperazin-1-yl-ergolines exhibiting antidopaminergic activity” (Farmitalia Carlo Erba, priority 1985, dated 1988)

Legend:
[1] = system: central apomorphine-induced climbing; test: Antagonism to central apomorphine-induced climbing (stereotypes) in mice; format: in vivo; conditions: Mus musculus, po; male mice; 60 minutes before 1 mg/kg s.c. apomorphine HCl; evaluated 10 minutes after apomorphine
From the text: (§1) Profiles of the central sedative pharmacological activity were obtained by Irwin's observational assessment of mouse behavior (Irwin, S.--Psychopharmacologia, Berl., 13, 222, 1968), which also gives an indication of the orientative acute toxicity after 7 days observation, and by antagonism to the central apomorphine-induced stereotypes (climbing) in mice.
For the antagonism to central apomorphine-induced climbing (Protais, P. et al.--Psychopharmacology, 50, 1, 1976), the compounds were orally administered to male mice, in a dose range between 0.25 and 10 mg/kg, 60 minutes before the subcutaneous injection of 1 mg/kg of apomorphine HCl. The antagonism to apormorphine-induced climbing behavior was evaluated 10 minutes after apomorphine administration.

[2] = Orientative acute toxicity (Irwin's observational assessment of mouse behavior, 7 days observation); conditions: in vivo, po, after 7 days observation
From the text: as §1

SMILES: CN1C[C@H](CN2CC(=O)NC(=O)C2)C[C@@H]2c3cccc4[nH]cc(c34)C[C@H]21 [Example 1, 6-Methyl-8β-(3,5-dioxo-piperazin-1-ylmethyl)-ergoline]
- ED50 [1]: 4.4 mg/kg
- LD50 at 168 h [2]: 600 mg/kg

SMILES: CN1C[C@H](CN2CC(=O)NC(=O)C2)C[C@@H]2c3cccc4c3c(cn4C)C[C@H]21 [Example 2, 1,6-Dimethyl-8β-(3,5-dioxo-piperazin-1-ylmethyl)-ergoline]
- ED50 [1]: 0.9 mg/kg
- LD50 at 168 h [2]: 300 mg/kg

SMILES: CN1C(=O)CN(C[C@@H]2C[C@@H]3c4cccc5[nH]cc(c45)C[C@H]3N(C)C2)CC1=O [Example 3, 6-Methyl-8β-(3,5-dioxo-4-methyl-piperazin-1-ylmethyl)-ergoline]
- ED50 [1]: 2.2 mg/kg
- LD50 at 168 h [2]: 300 mg/kg

SMILES: CN1C[C@H](CN2CC(=O)NC(=O)C2)C=C2c3cccc4[nH]cc(c34)C[C@H]21 [Example 5, 6-Methyl-9,10-didehydro-8β-(3,5-dioxo-piperazin-1-ylmethyl)-ergoline]
- ED50 [1]: 0.5 mg/kg
- LD50 at 168 h [2]: 200 mg/kg
